Patent US8697662B2, “Methods for treating Kaposi sarcoma” (PTC Therapeutics, Inc., priority 2009, dated 2014)

Columns and labels:
soluble VEGF isoforms = assay: ELISA of soluble VEGF production in nontransformed keratinocytes under hypoxia or normoxia; format: cell-based, human; details: normoxic, 72 hours
Method: Experimental Design. Nontransformed normal human keratinocyte cell cultures were established under normoxic conditions (21% oxygen). […] At the completion of treatment, cells were assessed for viability with an ATP assay and conditioned media were evaluated for VEGF protein levels by ELISA (as described in Section 9.1.1.1).

[1] = test system: soluble VEGF121 and VEGF165 isoforms; assay: ELISA of soluble VEGF production in multiple human tumor cell lines (EC50); format: cell-based; details: 18 human tumor cell lines
Method: Study Design. […] In these experiments, cultures were established under normoxic conditions (21% oxygen). […] Cells requiring induction of VEGF production were incubated under hypoxic conditions (1% oxygen). At the completion of treatment, the conditioned media were collected and assayed by ELISA (as described in Section 9.1.1.1) for soluble VEGF121 and VEGF165 isoforms; results were calculated as percentage inhibition relative to vehicle treated controls. EC50 values were calculated from the dose concentration response curves.

HT1080 xenografts [2] = assay: Dose response assessment in nude mice bearing HT1080 xenografts (tumor and plasma human VEGF, tumor size, trough plasma level); format: in vivo, athymic nude mice
Method: Experimental Study Design. HT1080 cells (5×10^6 cells/mouse) were implanted subcutaneously in male athymic nude mice.
Tumor size was measured using calipers at periodic intervals during the study (data shown in Section 9.2.2). […] Mice were sacrificed, and excised tumors were homogenized in buffer containing protease inhibitors. Both terminal intratumoral and pathologic plasma human VEGF levels were measured using an ELISA that recognizes human VEGF121 and VEGF165 (as described in Section 9.1.1.1). Intratumoral VEGF levels were normalized to the total tumor protein concentration, while pathologic plasma human VEGF levels were expressed in pg/mL of plasma.
Experimental Design. The experimental design was reported in Section 9.1.2.2.

HT1080 xenografts [3] = assay: Time course of tumor size and plasma human VEGF in HT1080 xenografts; format: in vivo, athymic nude mice
Method: Experimental Design. HT1080 cells (5×10^6 cells/mouse) were implanted subcutaneously in male athymic nude mice.
Tumor size was measured by calipers immediately pre-treatment and at the time of sacrifice on Day 1, 2, or 3 (5 mice per group per day). At sacrifice, the plasma was collected for assay of pathologic human VEGF concentration using an ELISA that recognizes human VEGF121 and VEGF165 (as described in Section 9.1.1.1).

[4] = test system: SKNEP orthotopic xenografts; assay: Orthotopic SKNEP Ewing sarcoma tumor model (kidney capsule), tumor weight; format: in vivo; details: 5 weeks of treatment
Source text: Experimental Design. In orthotopic tumor models, human tumor cells are implanted into the mouse in an organ that corresponds to the location from which the tumors arise. Such models may provide a better predictor of clinical efficacy than injection of tumors into the flanks of nude mice. See Hoffman, Invest. New Drugs 1999, 17(4):343-59. SY5Y neuroblastoma or SKNEP Ewing sarcoma tumor cells (1×10^6 cells/mouse) were implanted into the kidney capsule of female athymic nude mice according to published methods. See Huang et al., Proc. Natl. Acad. Sci. USA 2003, 100(13):7785-90. One week after implantation of each type of tumor, mice were divided into 2 groups and were administered a test Compound as shown in Table 21.
After 5 weeks of treatment, the mice were sacrificed, and the weights of the tumors were assessed.

[5] = biological target: human-ether-a-go-go-related gene (hERG) current (Homo sapiens, UniProt Q12809); assay: Higher throughput hERG assay; format: biochemical
[6] = Respiratory safety pharmacology study in awake telemeterized dogs; format: in vivo, beagle dogs; details: single oral doses of 30, 60, and 120 mg/kg, male dogs
[7] = Oral pharmacokinetics in mice; format: in vivo
Method: The pharmacokinetic evaluations in mice were adjuncts to the primary pharmacodynamic xenograft studies. The evaluations in rats included toxicokinetic assessments in single-dose, 7-day, and 28-day toxicology studies as well as a mass-balance study after a single oral dose of ^14C-Compound #10. The evaluations in dogs included toxicokinetic assessments in 7-day and 28-day toxicology studies. In the studies performed, rodents were dosed once daily with Compound #10 formulated in vehicle and administered via oral gavage.

[8] = In vitro plasma protein binding of 14C-radiolabeled Compound #10; format: in vitro ADME, mice, rats, dogs, monkeys, and humans; details: 0.05 to 50 μg/mL
CYP1A2 = biological target: T1, CYP1A2 (Homo sapiens, UniProt P05177); assay: CYP inhibition in human hepatic microsomes or recombinant isoenzymes: CYP1A2; format: in vitro ADME
T1 construct: host or cells: human hepatic microsomes or human recombinant isoenzymes
Source text: It is possible that in certain clinical trial subjects, such agents may need to be adjusted for dosing or replaced by alternative agents that are not metabolized by CYP2D6, particularly when such agents may have a low therapeutic index.

[9] = Single-dose oral toxicity study in rats; details: Sprague Dawley, rat, in vivo, 1 day
Method: (§1) A battery of genotoxicity studies was also performed. […] The L23 vehicle was used.
Because maximal exposure occurred at 100 mg/kg, this dose is considered the NOAEL for 1 day of dosing.

[10] = 7-day oral toxicity study in rats; details: Sprague Dawley, rat, in vivo; for NOAEL at 7 days: oral gavage
Method: as §1
Maximal exposures occurred at a dose of 120 mg/kg/day.

[11] = 7-day oral toxicity study in dogs; format: in vivo
[12] = Phase 1 escalating multiple-dose study in healthy volunteers: pharmacokinetics (Table 28); format: in vivo, human
Method: The study was performed under the oversight of the French health authorities. The study was not performed under an IND.
Methods. The trial was a Phase 1, randomized, escalating multiple dose, single center study conducted in 2 stages.
Capsules contained 2 mg or 20 mg of active substance.
Capsules contained 20 mg or 25 mg of active substance.
Noncompartmental methods were used to compute Tmax, Cmax, and AUC. Dose proportionality and sex effect were evaluated using ANOVA on log transformed PK parameters using dose, sex, and dose by sex as fixed factors.

in vivo = details: both, beagle, dog, po
Method: The L23 vehicle was used. […] All studies in the toxicology program were conducted according to GLP regulations.

T1 sequence (P05177 whole entry): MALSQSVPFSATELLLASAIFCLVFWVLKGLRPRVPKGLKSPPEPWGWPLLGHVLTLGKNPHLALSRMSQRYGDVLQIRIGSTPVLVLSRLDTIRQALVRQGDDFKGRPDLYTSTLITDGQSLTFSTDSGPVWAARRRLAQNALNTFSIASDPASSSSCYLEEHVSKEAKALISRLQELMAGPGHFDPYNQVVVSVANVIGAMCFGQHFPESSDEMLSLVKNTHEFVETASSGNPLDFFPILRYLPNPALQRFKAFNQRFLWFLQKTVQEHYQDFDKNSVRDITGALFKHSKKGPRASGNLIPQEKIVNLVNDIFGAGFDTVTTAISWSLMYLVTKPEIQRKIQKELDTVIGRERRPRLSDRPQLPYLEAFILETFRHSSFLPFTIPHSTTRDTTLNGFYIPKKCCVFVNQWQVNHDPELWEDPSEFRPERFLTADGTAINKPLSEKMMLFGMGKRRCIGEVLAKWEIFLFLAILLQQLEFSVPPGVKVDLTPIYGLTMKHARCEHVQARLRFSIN
Chain of human-ether-a-go-go-related gene (hERG) current (Q12809 whole entry): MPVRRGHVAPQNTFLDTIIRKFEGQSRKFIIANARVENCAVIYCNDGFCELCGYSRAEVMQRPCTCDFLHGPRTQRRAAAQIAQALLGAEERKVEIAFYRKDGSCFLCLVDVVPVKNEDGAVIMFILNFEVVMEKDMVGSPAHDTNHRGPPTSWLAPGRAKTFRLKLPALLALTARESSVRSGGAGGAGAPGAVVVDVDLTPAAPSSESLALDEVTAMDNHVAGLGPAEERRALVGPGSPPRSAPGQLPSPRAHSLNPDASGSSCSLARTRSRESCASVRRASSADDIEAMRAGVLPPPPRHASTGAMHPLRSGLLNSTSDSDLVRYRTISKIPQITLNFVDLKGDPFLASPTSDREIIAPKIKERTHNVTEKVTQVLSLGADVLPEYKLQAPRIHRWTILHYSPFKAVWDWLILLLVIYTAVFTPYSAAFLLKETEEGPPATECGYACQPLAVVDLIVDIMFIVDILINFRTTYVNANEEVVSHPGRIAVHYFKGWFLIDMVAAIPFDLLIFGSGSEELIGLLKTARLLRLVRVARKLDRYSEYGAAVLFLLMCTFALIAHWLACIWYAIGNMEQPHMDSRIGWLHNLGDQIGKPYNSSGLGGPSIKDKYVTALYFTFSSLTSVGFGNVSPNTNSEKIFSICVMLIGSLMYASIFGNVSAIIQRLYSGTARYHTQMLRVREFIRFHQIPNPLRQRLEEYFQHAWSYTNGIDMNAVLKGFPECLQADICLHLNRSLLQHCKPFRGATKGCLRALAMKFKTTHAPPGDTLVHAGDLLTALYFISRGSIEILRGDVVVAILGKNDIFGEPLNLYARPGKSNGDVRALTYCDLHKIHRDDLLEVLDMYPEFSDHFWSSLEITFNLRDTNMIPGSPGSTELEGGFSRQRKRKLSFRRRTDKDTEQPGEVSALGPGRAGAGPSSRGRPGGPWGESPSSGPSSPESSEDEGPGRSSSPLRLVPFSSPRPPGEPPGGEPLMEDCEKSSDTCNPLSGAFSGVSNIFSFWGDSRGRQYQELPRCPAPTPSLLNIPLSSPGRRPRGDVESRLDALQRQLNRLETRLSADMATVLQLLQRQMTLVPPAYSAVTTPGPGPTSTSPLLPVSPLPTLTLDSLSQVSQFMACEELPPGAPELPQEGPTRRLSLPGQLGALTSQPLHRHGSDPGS

**Q.** For `COc1ccc(C2c3[nH]c4ccc(Cl)cc4c3CCN2C(=O)Oc2ccc(Cl)cc2)cc1` (racemic) [Compound #10], which “decrease in VEGF concentrations in conditioned media” value (soluble VEGF isoforms) is on record?
**A.** Its value is 21%.

**Q.** What about the “EC50 values for cell lines showing VEGF inhibition (in words)” value [1] of the same compound?
**A.** Its value is “low nanomolar range”.

**Q.** And the “pathologic human VEGF levels in tumors and in plasma (in words)” value (HT1080 xenografts [2]; all Compound #10 dose groups (0.3 to 10 mg/kg oral), 18 days)?
**A.** The value was “significantly suppressed”.

**Q.** What about the “human VEGF reductions (in words)” value (HT1080 xenografts [2]; all dose levels of >=1 mg/kg BID) of the same compound?
**A.** Its value is “essentially maximal”.

**Q.** What about the “antitumor activity, tumor size over time (in words)” value (HT1080 xenografts [2]; dose levels of >=1 mg/kg BID) of the same compound?
**A.** Its value is “maximum antitumor activity”.

**Q.** And the “tumor and pathologic plasma human VEGF concentrations (in words)” value (HT1080 xenografts [2]; suboptimal dose of 0.3 mg/kg BID)?
**A.** Its value is “partial reductions”.

**Q.** And the “pathologic plasma human VEGF concentrations (in words)” value (HT1080 xenografts [3]; Days 2 and 3, 10 mg/kg oral QD)?
**A.** Its value is “continued to decline”.

**Q.** What about the “pathologic plasma human VEGF levels (in words)” value (HT1080 xenografts [3]; by Day 1) of the same compound?
**A.** The value was “numerically lower than in control animals”.

**Q.** What about the “reducing tumor derived plasma VEGF levels, comparison (in words)” value (HT1080 xenografts [3]; by Day 3 of treatment) of the same compound?
**A.** Its value is “as active as bevacizumab and more effective than doxorubicin”.

**Q.** What about the “tumor growth (tumor weight) (in words)” value [4] of the same compound?
**A.** The value was “completely prevented growth”.

**Q.** And the “inhibition of hERG current (in words)” value [5]?
**A.** The value was “negative for meaningful inhibition”.

**Q.** And the “respiratory rate, core body temperature, arterial blood gases, arterial pH, arterial bicarbonate” value [6]?
**A.** The value was “no dose dependent or biologically significant changes”.

**Q.** What about the “oral bioavailability (in words)” value [7] of the same compound?
**A.** The value was “orally bioavailable”.

**Q.** And the “relationship between dose and plasma exposure (in words)” value ([7]; oral)?
**A.** Its value is “bell-shaped curve”.

**Q.** What about the “concentration dependence of protein binding (in words)” value [8] of the same compound?
**A.** The value was “independent of concentration”.

**Q.** What about the “inhibition of CYP1A2 (in words)” value (CYP1A2) of the same compound?
**A.** Its value is “No meaningful inhibition”.

**Q.** And the “dose at which maximal exposure occurred” value [9]?
**A.** The value was 100 mg/kg.

**Q.** And the “dose at which maximal exposures occurred” value ([10]; 7 days)?
**A.** The value was 120 mg/kg/day.

**Q.** And the NOAEL at 7 days ([10]; female, read-out: NOAEL for 7-days, female rats)?
**A.** The NOAEL at 7 days was 120 mg/kg/day.

**Q.** And the NOAEL at 7 days ([10]; male, read-out: NOAEL for 7-days, male rats)?
**A.** Its NOAEL at 7 days is 40 mg/kg/day.

**Q.** What about the NOAEL at 7 days ([11]; both sexes, beagle, dog, in vivo, dogs, oral capsules) of the same compound?
**A.** Its NOAEL at 7 days is 60 mg/kg/day.

**Q.** What about the “dose at which exposures were maximal” value ([11]; dogs, 10, 30, or 60 mg/kg/dose BID, 7 days) of the same compound?
**A.** Its value is 30 mg/kg/dose BID.

**Q.** And the treatment-related clinical finding ([11]; dogs, males and females, 10, 30, or 60 mg/kg/dose BID, 7 days)?
**A.** The treatment-related clinical finding was “increased incidence and frequency of soft stools”.

**Q.** What about the “NOAEL for 7-days” value ([11]; dogs, oral capsules) of the same compound?
**A.** The value was 30 mg/kg/dose BID.

**Q.** What about the “oral bioavailability (in words)” value [12] of the same compound?
**A.** The value was “orally bioavailable”.

**Q.** And the “increases in mean Cmax and AUC0-24 with dose (in words)” value ([12]; Stage 1 and Stage 2)?
**A.** The value was “generally dose proportional”.

**Q.** What about the “target trough plasma concentration of ~0.1 to […] (in words)” value ([12]; all dose levels) of the same compound?
**A.** Its value is “achieved”.

**Q.** And the “accumulation of Cmax and AUC0-24, Day 1 to Day 7” value ([12]; continuous dosing 7 days)?
**A.** The value was ~2 fold.

**Q.** And the “lag time before appearance in plasma” value ([12]; oral capsules)?
**A.** The value was ~30 min.

**Q.** And the NOAEL at 28 days (in vivo)?
**A.** Its NOAEL at 28 days is 30 mg/kg/day.
